Experimental data reported in ChEMBL document CHEMBL3991601, “The target landscape of clinical kinase drugs” (Science, 2017).
Activity calls are given as the source filed them. For most assays here, no stated cut-off is given here; in the data, actives have a measured Kd and inactives only a lower limit.

Assays:
[1] = biological target: Mitogen-activated protein kinase kinase kinase 1 (Homo sapiens, UniProt Q13233)
[2] = biological target: Chromodomain-helicase-DNA-binding protein 4 (Homo sapiens, UniProt Q14839)
Chromodomain-helicase-DNA-binding protein 4, sequence (Q14839 whole entry): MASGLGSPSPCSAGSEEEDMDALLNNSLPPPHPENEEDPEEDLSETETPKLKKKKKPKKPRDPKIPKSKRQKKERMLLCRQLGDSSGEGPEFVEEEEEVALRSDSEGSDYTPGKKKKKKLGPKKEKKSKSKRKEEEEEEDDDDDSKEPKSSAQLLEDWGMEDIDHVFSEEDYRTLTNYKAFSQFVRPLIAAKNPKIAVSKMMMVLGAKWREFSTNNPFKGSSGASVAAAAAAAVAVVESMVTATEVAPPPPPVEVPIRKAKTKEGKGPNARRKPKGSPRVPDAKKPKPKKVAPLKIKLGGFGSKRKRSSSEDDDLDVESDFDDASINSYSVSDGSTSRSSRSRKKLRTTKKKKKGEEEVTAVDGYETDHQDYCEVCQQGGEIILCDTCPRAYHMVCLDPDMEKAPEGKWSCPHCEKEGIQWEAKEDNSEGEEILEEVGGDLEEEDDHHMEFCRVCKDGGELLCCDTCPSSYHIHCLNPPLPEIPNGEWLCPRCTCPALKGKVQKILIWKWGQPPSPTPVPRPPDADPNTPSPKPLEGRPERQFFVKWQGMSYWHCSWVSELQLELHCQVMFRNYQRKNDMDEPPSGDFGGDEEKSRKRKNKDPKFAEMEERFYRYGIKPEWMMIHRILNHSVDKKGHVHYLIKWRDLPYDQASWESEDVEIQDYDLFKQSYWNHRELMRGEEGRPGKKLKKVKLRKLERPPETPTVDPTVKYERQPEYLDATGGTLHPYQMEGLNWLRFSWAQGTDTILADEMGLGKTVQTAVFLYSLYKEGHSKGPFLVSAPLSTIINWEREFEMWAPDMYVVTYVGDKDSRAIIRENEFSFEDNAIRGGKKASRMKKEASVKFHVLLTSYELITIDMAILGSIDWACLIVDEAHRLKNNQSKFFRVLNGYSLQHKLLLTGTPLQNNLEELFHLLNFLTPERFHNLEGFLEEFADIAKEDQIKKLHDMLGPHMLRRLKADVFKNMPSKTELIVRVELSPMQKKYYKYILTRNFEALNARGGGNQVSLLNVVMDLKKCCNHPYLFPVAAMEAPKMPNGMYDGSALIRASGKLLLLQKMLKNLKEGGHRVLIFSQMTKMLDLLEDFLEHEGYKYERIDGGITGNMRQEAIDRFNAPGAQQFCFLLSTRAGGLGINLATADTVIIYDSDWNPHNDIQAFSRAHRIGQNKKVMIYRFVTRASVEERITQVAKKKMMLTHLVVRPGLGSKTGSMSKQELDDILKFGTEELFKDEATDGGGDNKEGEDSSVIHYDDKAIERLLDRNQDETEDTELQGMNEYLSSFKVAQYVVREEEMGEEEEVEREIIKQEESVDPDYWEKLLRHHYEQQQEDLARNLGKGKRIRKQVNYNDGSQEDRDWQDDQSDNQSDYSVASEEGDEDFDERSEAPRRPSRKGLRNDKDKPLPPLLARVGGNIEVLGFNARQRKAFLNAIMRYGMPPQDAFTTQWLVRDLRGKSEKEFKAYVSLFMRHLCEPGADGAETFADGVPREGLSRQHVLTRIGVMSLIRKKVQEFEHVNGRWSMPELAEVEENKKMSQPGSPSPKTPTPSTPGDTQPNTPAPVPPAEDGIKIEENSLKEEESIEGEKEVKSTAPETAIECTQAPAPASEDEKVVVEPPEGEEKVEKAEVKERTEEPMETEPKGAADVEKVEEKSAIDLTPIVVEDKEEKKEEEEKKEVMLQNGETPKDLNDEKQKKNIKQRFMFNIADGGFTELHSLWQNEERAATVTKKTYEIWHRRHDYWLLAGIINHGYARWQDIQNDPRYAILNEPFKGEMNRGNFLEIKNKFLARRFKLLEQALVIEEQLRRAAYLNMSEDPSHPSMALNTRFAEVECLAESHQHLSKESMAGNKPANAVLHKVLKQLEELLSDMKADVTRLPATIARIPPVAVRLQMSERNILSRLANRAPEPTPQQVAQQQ

[3] = biological target: Calcium/calmodulin-dependent protein kinase kinase 2 (Homo sapiens, UniProt Q96RR4)
[4] = biological target: Mitogen-activated protein kinase 3 (Homo sapiens, UniProt P27361)
Mitogen-activated protein kinase 3, sequence (P27361 whole entry): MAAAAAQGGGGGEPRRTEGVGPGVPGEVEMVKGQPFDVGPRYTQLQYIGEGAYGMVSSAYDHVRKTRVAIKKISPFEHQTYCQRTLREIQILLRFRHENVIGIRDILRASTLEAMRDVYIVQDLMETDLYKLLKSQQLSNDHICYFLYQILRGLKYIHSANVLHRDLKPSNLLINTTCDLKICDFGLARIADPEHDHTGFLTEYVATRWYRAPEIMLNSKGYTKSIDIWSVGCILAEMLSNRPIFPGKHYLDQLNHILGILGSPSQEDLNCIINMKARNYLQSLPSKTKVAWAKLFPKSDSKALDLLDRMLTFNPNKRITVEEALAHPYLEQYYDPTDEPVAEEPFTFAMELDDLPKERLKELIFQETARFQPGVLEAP

[5] = biological target: T1, EKC/KEOPS complex subunit TP53RK (Homo sapiens, UniProt Q96S44)
T1 sequence (Q96S44 whole entry): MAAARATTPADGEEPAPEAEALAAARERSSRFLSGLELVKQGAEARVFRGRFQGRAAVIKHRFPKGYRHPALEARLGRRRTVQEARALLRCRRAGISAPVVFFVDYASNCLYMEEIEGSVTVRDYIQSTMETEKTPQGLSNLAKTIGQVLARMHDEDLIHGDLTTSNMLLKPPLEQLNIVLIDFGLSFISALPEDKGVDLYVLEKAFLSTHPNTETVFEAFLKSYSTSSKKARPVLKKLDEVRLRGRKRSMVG

[6] = biological target: cAMP-dependent protein kinase catalytic subunit alpha (Homo sapiens, UniProt P17612)
[7] = biological target: Mitogen-activated protein kinase 7 (Homo sapiens, UniProt Q13164)
[8] = biological target: T2, Serine/threonine-protein kinase A-Raf (Homo sapiens, UniProt P10398)
T2 sequence (P10398 whole entry): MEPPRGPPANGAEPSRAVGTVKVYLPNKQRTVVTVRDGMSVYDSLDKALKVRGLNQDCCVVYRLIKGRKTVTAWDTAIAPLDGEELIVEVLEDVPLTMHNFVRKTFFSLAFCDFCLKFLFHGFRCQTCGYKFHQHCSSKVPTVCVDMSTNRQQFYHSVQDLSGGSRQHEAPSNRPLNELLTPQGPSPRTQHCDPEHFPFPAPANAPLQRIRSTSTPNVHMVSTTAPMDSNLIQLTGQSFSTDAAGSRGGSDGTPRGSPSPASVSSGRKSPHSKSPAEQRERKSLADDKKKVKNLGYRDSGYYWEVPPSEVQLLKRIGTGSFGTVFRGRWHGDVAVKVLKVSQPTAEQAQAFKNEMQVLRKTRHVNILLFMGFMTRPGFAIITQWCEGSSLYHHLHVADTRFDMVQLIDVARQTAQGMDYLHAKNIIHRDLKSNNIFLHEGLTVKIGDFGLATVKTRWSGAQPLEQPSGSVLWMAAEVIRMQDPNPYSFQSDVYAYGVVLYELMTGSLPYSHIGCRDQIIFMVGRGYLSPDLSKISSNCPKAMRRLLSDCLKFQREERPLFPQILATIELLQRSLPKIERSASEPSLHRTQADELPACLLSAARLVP

[9] = biological target: Bone morphogenetic protein receptor type-1B (Homo sapiens, UniProt O00238)
Bone morphogenetic protein receptor type-1B, sequence (O00238 whole entry, canonical isoform): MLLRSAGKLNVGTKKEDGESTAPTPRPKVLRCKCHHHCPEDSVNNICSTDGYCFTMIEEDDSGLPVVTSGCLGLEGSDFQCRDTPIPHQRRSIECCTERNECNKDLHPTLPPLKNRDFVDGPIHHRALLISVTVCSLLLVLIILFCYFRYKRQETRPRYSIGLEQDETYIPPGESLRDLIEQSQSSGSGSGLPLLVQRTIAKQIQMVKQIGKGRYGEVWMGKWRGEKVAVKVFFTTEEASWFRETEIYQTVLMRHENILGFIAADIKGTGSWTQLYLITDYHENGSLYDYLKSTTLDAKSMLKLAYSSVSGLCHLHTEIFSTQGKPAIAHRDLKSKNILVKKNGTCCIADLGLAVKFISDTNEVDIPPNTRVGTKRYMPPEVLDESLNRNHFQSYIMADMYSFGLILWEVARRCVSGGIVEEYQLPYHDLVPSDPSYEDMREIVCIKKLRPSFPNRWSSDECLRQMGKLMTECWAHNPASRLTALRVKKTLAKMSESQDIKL

[10] = biological target: Casein kinase I isoform alpha (Homo sapiens, UniProt P48729)
Casein kinase I isoform alpha, sequence (P48729 whole entry, canonical isoform): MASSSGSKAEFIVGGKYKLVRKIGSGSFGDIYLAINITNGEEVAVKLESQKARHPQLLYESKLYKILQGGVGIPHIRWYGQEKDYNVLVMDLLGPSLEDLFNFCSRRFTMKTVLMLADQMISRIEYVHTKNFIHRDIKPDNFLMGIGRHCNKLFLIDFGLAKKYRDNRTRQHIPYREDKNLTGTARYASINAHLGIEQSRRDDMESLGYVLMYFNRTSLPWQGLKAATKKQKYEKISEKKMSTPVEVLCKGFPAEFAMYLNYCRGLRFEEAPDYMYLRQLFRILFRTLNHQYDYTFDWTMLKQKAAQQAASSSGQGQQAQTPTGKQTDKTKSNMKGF

[11] = biological target: Fibroblast growth factor receptor 1 (Homo sapiens, UniProt P11362)
[12] = biological target: Macrophage-stimulating protein receptor (Homo sapiens, UniProt Q04912)
Macrophage-stimulating protein receptor, sequence (Q04912 25-304 limits assumed): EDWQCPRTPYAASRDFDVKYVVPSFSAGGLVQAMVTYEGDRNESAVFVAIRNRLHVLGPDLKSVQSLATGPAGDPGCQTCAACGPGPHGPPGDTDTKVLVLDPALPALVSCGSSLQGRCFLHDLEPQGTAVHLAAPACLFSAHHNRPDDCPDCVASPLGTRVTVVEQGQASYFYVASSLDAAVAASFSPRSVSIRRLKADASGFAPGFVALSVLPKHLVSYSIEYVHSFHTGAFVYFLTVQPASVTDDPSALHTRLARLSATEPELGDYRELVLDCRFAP
Macrophage-stimulating protein receptor, sequence (Q04912 310-1400 limits assumed): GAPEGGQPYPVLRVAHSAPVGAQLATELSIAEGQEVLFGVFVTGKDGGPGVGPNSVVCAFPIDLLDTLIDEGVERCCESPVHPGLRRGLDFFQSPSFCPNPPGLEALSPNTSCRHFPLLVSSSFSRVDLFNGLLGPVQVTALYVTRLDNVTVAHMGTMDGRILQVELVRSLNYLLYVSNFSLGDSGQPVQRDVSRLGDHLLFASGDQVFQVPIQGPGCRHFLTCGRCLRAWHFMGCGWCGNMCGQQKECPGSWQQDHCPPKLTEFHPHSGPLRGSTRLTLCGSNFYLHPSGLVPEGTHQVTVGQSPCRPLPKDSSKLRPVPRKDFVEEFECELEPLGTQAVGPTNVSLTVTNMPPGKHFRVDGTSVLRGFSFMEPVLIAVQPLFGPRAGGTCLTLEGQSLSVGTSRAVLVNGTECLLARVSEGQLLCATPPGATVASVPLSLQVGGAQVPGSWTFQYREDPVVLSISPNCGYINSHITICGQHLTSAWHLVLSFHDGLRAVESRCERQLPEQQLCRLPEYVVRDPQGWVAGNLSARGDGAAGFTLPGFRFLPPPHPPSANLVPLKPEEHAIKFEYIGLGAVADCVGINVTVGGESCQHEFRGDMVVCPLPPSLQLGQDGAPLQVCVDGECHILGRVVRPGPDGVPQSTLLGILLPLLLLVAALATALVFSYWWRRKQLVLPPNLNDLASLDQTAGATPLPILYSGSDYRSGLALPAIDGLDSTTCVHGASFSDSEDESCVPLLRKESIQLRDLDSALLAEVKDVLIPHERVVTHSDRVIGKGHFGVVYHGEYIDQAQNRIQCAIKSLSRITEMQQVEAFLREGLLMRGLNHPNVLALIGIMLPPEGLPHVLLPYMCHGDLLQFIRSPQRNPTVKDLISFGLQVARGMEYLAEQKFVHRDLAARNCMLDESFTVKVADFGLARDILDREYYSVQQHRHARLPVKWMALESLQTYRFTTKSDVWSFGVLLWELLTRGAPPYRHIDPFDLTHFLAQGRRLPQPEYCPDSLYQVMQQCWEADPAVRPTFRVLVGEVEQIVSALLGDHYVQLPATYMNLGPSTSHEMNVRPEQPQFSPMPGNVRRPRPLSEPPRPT

Ephrin type-B receptor 3 = biological target: T3, Ephrin type-B receptor 3 (Homo sapiens, UniProt P54753)
T3 sequence (P54753 whole entry): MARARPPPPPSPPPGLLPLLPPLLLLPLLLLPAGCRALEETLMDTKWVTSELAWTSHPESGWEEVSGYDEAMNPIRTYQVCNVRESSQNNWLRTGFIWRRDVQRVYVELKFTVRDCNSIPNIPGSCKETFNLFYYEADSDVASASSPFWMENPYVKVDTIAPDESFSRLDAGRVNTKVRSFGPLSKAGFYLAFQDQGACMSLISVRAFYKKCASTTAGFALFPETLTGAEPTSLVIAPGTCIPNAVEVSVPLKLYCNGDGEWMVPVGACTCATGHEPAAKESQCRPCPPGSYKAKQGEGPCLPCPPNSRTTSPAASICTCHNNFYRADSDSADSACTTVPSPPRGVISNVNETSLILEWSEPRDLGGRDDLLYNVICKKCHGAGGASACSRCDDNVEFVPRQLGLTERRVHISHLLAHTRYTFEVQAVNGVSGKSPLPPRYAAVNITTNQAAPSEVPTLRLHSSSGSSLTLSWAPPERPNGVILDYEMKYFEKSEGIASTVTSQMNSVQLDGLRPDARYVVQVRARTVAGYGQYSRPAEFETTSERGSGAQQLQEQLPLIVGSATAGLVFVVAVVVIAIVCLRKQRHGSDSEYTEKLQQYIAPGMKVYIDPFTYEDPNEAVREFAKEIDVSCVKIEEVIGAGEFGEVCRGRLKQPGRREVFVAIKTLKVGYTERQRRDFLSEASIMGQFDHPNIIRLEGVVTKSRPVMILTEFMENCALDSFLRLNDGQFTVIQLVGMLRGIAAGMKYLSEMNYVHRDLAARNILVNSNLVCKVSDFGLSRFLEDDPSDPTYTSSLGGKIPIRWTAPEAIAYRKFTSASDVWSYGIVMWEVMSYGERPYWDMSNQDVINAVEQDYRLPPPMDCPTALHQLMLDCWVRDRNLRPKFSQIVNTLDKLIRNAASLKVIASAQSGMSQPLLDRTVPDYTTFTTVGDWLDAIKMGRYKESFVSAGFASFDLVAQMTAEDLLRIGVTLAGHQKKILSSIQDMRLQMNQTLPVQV

[13] = biological target: T4, Serine/threonine-protein kinase Nek2 (Homo sapiens, UniProt P51955)
T4 sequence (P51955 whole entry): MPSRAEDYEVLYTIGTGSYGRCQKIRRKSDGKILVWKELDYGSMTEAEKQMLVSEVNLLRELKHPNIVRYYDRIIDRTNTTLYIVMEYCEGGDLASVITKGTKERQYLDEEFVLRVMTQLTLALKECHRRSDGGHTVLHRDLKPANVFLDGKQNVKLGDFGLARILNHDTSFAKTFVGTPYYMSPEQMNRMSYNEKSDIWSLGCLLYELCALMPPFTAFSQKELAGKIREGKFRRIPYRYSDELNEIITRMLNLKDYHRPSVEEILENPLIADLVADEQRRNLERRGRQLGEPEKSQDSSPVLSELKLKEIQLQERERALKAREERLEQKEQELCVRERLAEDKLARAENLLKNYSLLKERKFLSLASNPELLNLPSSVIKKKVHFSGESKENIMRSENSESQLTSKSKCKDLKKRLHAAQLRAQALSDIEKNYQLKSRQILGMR

[14] = biological target: Dual specificity mitogen-activated protein kinase kinase 2 (Homo sapiens, UniProt P36507)
Dual specificity mitogen-activated protein kinase kinase 2, sequence (P36507 whole entry): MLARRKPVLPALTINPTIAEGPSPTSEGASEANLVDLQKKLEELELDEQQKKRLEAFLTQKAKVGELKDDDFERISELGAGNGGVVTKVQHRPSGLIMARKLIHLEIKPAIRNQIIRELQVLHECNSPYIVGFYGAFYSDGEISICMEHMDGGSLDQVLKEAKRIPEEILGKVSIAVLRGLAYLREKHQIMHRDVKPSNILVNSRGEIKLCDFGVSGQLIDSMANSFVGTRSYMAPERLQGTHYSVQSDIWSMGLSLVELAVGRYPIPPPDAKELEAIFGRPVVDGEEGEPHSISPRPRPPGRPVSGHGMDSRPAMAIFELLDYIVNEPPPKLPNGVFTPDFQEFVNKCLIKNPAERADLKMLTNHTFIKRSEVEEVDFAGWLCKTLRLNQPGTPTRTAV

| SMILES | Kd [1] | Kd [2] | Kd [3] | Kd [4] | Kd [5] | Kd [6] | Kd [7] | Kd [8] | Kd [9] | Kd [10] | Kd [11] | Kd [12] | Kd (Ephrin type-B receptor 3) | Kd [13] | Kd [14] |
| --- | --- | --- | --- | --- | --- | --- | --- | --- | --- | --- | --- | --- | --- | --- | --- |
| CNS(=O)(=O)Nc1nccc(Cc2c(C)c3ccc(Oc4ncccn4)cc3oc2=O)c1F [AVUTOMETINIB] | > 30 µM (inactive) | > 30 µM (inactive) | > 30 µM (inactive) | > 30 µM (inactive) | > 30 µM (inactive) | > 30 µM (inactive) | > 30 µM (inactive) | > 30 µM (inactive) | > 30 µM (inactive) | > 30 µM (inactive) | > 30 µM (inactive) | > 30 µM (inactive) | > 30 µM (inactive) | > 30 µM (inactive) |  |
| CCc1cnn2c(NCc3ccc[n+]([O-])c3)cc(N3CCCC[C@H]3CCO)nc12 [DINACICLIB] | > 30 µM (inactive) | 0.003 µM | > 30 µM (inactive) | > 30 µM (inactive) | > 30 µM (inactive) |  | > 30 µM (inactive) | > 30 µM (inactive) | > 30 µM (inactive) |  |  |  | > 30 µM (inactive) |  |  |
| COc1cc2nccc(Oc3ccc(NC(=O)Nc4cc(C)on4)c(Cl)c3)c2cc1OC [TIVOZANIB] | > 30 µM (inactive) | > 30 µM (inactive) | > 30 µM (inactive) | > 30 µM (inactive) | > 30 µM (inactive) | > 30 µM (inactive) | > 30 µM (inactive) |  | > 30 µM (inactive) | > 30 µM (inactive) |  | > 30 µM (inactive) | 5.43 µM (active) | > 30 µM (inactive) | > 30 µM (inactive) |
| C[C@@H](c1ccc2nccn2c1)n1nnc2ncc(-c3cnn(C)c3)nc21 [SAVOLITINIB] | > 30 µM (inactive) |  | > 30 µM (inactive) | > 30 µM (inactive) | > 30 µM (inactive) | > 30 µM (inactive) | > 30 µM (inactive) | > 30 µM (inactive) | > 30 µM (inactive) | > 30 µM (inactive) | > 30 µM (inactive) | > 30 µM (inactive) | > 30 µM (inactive) |  | > 30 µM (inactive) |
| Cc1cn(-c2cc(NC(=O)c3ccc(C)c(Nc4nccc(-c5cccnc5)n4)c3)cc(C(F)(F)F)c2)cn1 [NILOTINIB] |  | > 30 µM (inactive) |  |  | > 30 µM (inactive) |  |  | > 30 µM (inactive) |  |  |  |  |  |  |  |
| CNC(=O)c1cc(Oc2ccc(NC(=O)Nc3ccc(Cl)c(C(F)(F)F)c3)c(F)c2)ccn1 [REGORAFENIB] | 0.465 µM (active) | > 30 µM (inactive) | > 30 µM (inactive) | > 30 µM (inactive) | > 30 µM (inactive) | > 30 µM (inactive) | > 30 µM (inactive) | > 30 µM (inactive) | > 30 µM (inactive) | > 30 µM (inactive) |  | > 30 µM (inactive) | > 30 µM (inactive) | > 30 µM (inactive) | > 30 µM (inactive) |
| Cc1cc(Nc2cc(N3CCN(C)CC3)nc(/C=C/c3ccccc3)n2)n[nH]1 [ENMD-2076] | > 30 µM (inactive) | > 30 µM (inactive) | > 30 µM (inactive) | > 30 µM (inactive) | > 30 µM (inactive) |  | > 30 µM (inactive) | > 30 µM (inactive) | > 30 µM (inactive) |  |  |  | > 30 µM (inactive) |  | > 30 µM (inactive) |
| OCCn1cc(-c2cnc3nnn(Cc4ccc5ncccc5c4)c3n2)cn1 [PF-04217903] | > 30 µM (inactive) | > 30 µM (inactive) | > 30 µM (inactive) | > 30 µM (inactive) | > 30 µM (inactive) |  | > 30 µM (inactive) | > 30 µM (inactive) | > 30 µM (inactive) |  |  |  | > 30 µM (inactive) |  |  |
| O=C(Nc1cccc(Cl)c1)Nc1ncc(CCNc2ncnc3ccsc23)s1 [SNS-314] |  | > 30 µM (inactive) | > 30 µM (inactive) | > 30 µM (inactive) | > 30 µM (inactive) |  |  | > 30 µM (inactive) | > 30 µM (inactive) |  |  |  | > 30 µM (inactive) |  |  |
| Cc1nc(N)sc1-c1ccnc(Nc2ccc(N3CCOCC3)cc2)n1 [CYC-116] | 8.16 µM (active) | > 30 µM (inactive) | 52.8 µM (active) | > 30 µM (inactive) | > 30 µM (inactive) |  | > 30 µM (inactive) | > 30 µM (inactive) | > 30 µM (inactive) |  |  | 0.575 µM (active) | > 30 µM (inactive) |  | > 30 µM (inactive) |
| CCn1c(-c2nonc2N)nc2c(C#CC(C)(C)O)ncc(OC[C@H]3CCCNC3)c21 [GSK-690693] |  | > 30 µM (inactive) |  |  | > 30 µM (inactive) |  |  | > 30 µM (inactive) |  |  |  |  |  |  |  |
| CN1CCN(c2ccc3nc(-c4c(N)c5c(F)cccc5[nH]c4=O)[nH]c3c2)CC1 [DOVITINIB] |  | > 30 µM (inactive) |  |  | > 30 µM (inactive) |  |  | > 30 µM (inactive) |  |  |  |  |  |  |  |
| Nc1nc(N)c2nc(-c3cccc(O)c3)c(-c3cccc(O)c3)nc2n1 [TG100-115] |  | > 30 µM (inactive) |  |  | > 30 µM (inactive) |  |  | > 30 µM (inactive) |  |  |  |  |  |  |  |
| COc1cc(CCc2cc(NC(=O)c3ccc(N4C[C@@H](C)N[C@@H](C)C4)cc3)n[nH]2)cc(OC)c1 [AZD-4547] | > 30 µM (inactive) | > 30 µM (inactive) | > 30 µM (inactive) | > 30 µM (inactive) | > 30 µM (inactive) | > 30 µM (inactive) | > 30 µM (inactive) | > 30 µM (inactive) | > 30 µM (inactive) | > 30 µM (inactive) |  | > 30 µM (inactive) | > 30 µM (inactive) | > 30 µM (inactive) | > 30 µM (inactive) |
